“And” between values parts separate entries of the source, which are not always exact repeats. Equal entries are not always repeated. Each block holds one compound with its values, some of them ahead of it.
Legend:
[1] = Human whole blood stability; assay type: in vitro ADME; settings: 37° C.
Procedure: (§1) Test compounds were incubated for a total of 240 minutes at 37° C. in whole mouse and whole human blood. The compounds were added at time-point 0 and sample aliquots were withdrawn at each time point (usually 0, 60 and 240 minutes). The samples were extracted using protein precipitation. Analysis of extracted samples was achieved using HPLC with MS detection. Several types of HPLC columns and mobile phase were used depending of the polarity of the compound. The compound stability was determined by the % of compound remaining at 240 minutes (peak response of compound at 240 minutes/peak response at 0 minutes×100).

[2] = Bioavailability of exemplary compounds in mice (3APS quantified in plasma); assay type: in vivo; settings: compared with 3APS
Procedure: Selected exemplary compounds were tested for bioavailability in mice. Bioavailability estimates are performed for 3APS after administration of molar equivalent the selected compounds. […] The animals are anesthetized with isoflurane before blood collection (approximately 45 sec). Samples are collected at 5, 30, 60, 120, 180, 240 and 360 min post intravenous administration and at 15, 30, 60, 120, 180, 240 and 360 min post oral administration. One animal is used to obtain a baseline sample (pre-dose sample). Blood samples are collected into Sarstedt™ micro tubes (EDTA KE/1.3 ml), kept on ice until centrifugation at 4° C. at a minimum speed of 3000 rpm (1620 G) for 10 min. Plasma samples are transferred into Eppendorf™ tubes, immediately placed on dry ice and stored at −80° C. Plasma samples are stored frozen at […] pending analysis.
Compounds in mouse plasma are extracted using protein precipitation. Quantitation of 3APS in mouse plasma matrix is achieved using LC-MS detection. Sample concentration is calculated using a calibration curve.

[3] = Mouse whole blood stability; assay type: in vitro ADME; settings: 37° C.
Procedure: as §1

[4] = Metabolic profiling of 14C-3APS in mice; assay type: in vivo, male CD-1 mice
Procedure: (§2) Three single dose studies were conducted in mice, rats and dogs to determine the metabolic profile of ^14C-3APS in plasma, urine and feces. In the first study, twenty-seven male CD-1 mice received a single dose of 100 mg/kg (20 μCi/animal) of ^14C-3APS by oral gavage. Blood samples (3 animals/time point) were collected for 12 hr following drug administration while urine and feces (3 animals/time point) samples were collected for 96 hr. In the second study, eight male Sprague-Dawley rats received a single dose of 100 mg/kg (50 μCi/animal) of ^14C-3APS by oral gavage while in the third study, three male Beagle dogs received a single dose of 100 mg/kg (30 μCi/kg) of ^14C-3APS by oral gavage. For the rat and dog studies, blood samples were collected for 24 hr following drug administration while urine and feces samples were collected for 72 hr. All samples were analyzed for total radioactivity using appropriate sample preparation procedures and scintillation counting. Plasma and urine samples were also analyzed for 3APS and 3APS metabolites (2-carboxyethanesulfonic acid, 3-hydroxy-1-propanesulfonic acid and 3-acetylamino-1-propanesulfonic acid) concentrations using qualified HPLC and MS/MS methods.

[5] = Single oral and IV administration of 14C-3APS to rats; assay type: in vivo, male Sprague-Dawley rats
Procedure: The purpose of this study was to investigate the absorption, metabolism and excretion profiles of ^14C-3APS following a single intravenous bolus and oral administration to rats. Thirty-six male Sprague-Dawley rats received a single 100 mg/kg (˜50 μCi/animal) dose of ^14C-3APS by an IV bolus injection (water or isotonic saline solution) and an additional 36 male rats received the same dose level by oral gavage (in water). Blood, urine, feces, brain and CSF samples were collected for up to 72 hr following dose administration. Plasma, urine, brain and CSF concentrations of 3APS and 2-carboxyethanesulfonic acid (3APS major metabolite) were measured using LC and MS/MS detection method. Plasma, urine, feces, brain and CSF samples were analyzed for total radioactivity using appropriate sample preparation procedures and scintillation counting.

[6] = Metabolic profiling of 14C-3APS in dogs; assay type: in vivo, male Beagle dogs
Procedure: as §2

[7] = Metabolic profiling of 14C-3APS in rats; assay type: in vivo, male Sprague-Dawley rats
Procedure: as §2

[8] = Mouse plasma, single oral 100 mg/kg 14C-3APS
[9] = Dog plasma, single oral 100 mg/kg 14C-3APS
[10] = Rat plasma, single oral 100 mg/kg 14C-3APS

Blood stability (% of compound remaining after 240 min.) Human Blood [1]: + (+: <30%)
effect on bioavailability of 3APS [2]: increasing the bioavailability of 3APS
Blood stability (% of compound remaining after 240 min.) Mouse Blood [3]: +++ (+++: >75%)
SMILES: NCCCC[C@H](N)C(=O)NCCCS(=O)(=O)O [Compound A4]

Total Radioactivity AUC0-τ [4, 8]: 24.4 μmol eq · min/mL
Total Radioactivity AUC∞ [4, 8]: 25.0 μmol eq · min/mL
% of the dose excreted in urine as total radioactivity ([4]; mouse, on average in all species): 60%
AUC0-∞ Total Radioactivity ([5]; IV, Mean): 1591 nmol eq · h/mL
AUC0-∞ Total Radioactivity ([5]; PO, Mean): 749 nmol eq · h/mL
Total Radioactivity AUC0-τ [6, 9]: 45.4 μmol eq · min/mL
Total Radioactivity AUC∞ [6, 9]: 108 μmol eq · min/mL
% of the dose excreted in urine as total radioactivity ([6]; dog, on average in all species): 60%
Total Radioactivity AUC0-τ [7, 10]: 43.3 μmol eq · min/mL
Total Radioactivity AUC∞ [7, 10]: 45.2 μmol eq · min/mL
% of the dose excreted in urine as total radioactivity ([7]; rat, on average in all species): 60%
SMILES: NCCCS(=O)(=O)O [^14C-3APS]
AUC0-∞ Total Radioactivity ([5]; IV, individual animals 1001-1004): 1625 nmol eq · h/mL and 1588 nmol eq · h/mL and 1883 nmol eq · h/mL and 1266 nmol eq · h/mL
AUC0-∞ Total Radioactivity ([5]; PO, individual animals 3001-3004): 874 nmol eq · h/mL and 714 nmol eq · h/mL and 628 nmol eq · h/mL and 781 nmol eq · h/mL

Blood stability (% of compound remaining after 240 min.) Human Blood [1]: + (+: <30%)
effect on bioavailability of 3APS [2]: increasing the bioavailability of 3APS
Blood stability (% of compound remaining after 240 min.) Mouse Blood [3]: + (+: <30%)
SMILES: N[C@@H](COCc1ccccc1)C(=O)NCCCS(=O)(=O)O [Compound A18]

Blood stability (% of compound remaining after 240 min.) Human Blood [1]: +++ (+++: >75%)
effect on bioavailability of 3APS [2]: increasing the bioavailability of 3APS
Blood stability (% of compound remaining after 240 min.) Mouse Blood [3]: +++ (+++: >75%)
SMILES: N[C@@H](CO)C(=O)NCCCS(=O)(=O)O [Compound A7]

— US11020360B2, “Methods, compounds, compositions and vehicles for delivering 3-amino-1-propanesulfonic acid” (Bellus Health, Inc., priority 2006, dated 2021)
